In US7655395B2, “Isolation and use of ryanodine receptors” (E.I. du Pont de Nemours and Company, priority 2002, dated 2010):

Key:
[1] = tested on: recombinant Heliothis virescens ryanodine receptor (expressed in Sf9 cells); experiment: Calcium release assay, Sf9 cells transiently or stably expressing Heliothis virescens ryanodine receptor (Fura-2); type: cell-based; conditions: Cpd 5 3 μM; Sf9 transiently expressing H. virescens ryanodine receptor, 72 hr post-transfection; FIG. 4
Method: SF9 cells were grown at 27 degrees C. in a Corning 125 ml polycarbonate Erlenmeyer flask to a density of 3.1 million cells per ml in SF900-II serum free media (Gibco catalog no. 10902-088, Invitrogen™, Carlsbad, Calif.). One million cells were transferred to one well of a Corning 6-well, flat bottom cell culture dish (Corning Inc., Acton, Mass., catalog no. 3516). SF900-II media was used to bring the final volume in the dish to 2 ml and the cells were incubated at 27 degrees C. for 21 h. Following the incubation the media was aspirated from the dish and replaced with 1 ml of SF900-II media pre-warmed to 27 degrees C.
In the case of the vectors containing the Cre recognition elements, the transfection solution was mixed in a 1.5 ml microfuge tube by combining 5 ug of pHE7 plasmid, 5 ug of pMLS104 Cre plasmid and 0.5 ug of lacZ reporter plasmid, 15 ug of cellfectin reagent (Invitrogen cat. #10362-010) and SF900-II serum free media (Gibco catalog #10902-088, Invitrogen™, Carlsbad, Calif.) in a total volume of 500 ul. The solution was incubated for 1 hour at room temperature just prior to the transfection.
The transfection was accomplished by adding the transfection solution drop-wise to the dish and incubating 4 h at room temperature with gentle rocking. After the 4 h incubation the media was replaced with 2 ml of SF900-II media pre-warmed to 27 degrees C. and the cells were incubated 3 days at 27 degrees C.
Several drops of a suspension of recombinant Spodoptera frugiperda cell line, Sf9, transiently expressing insect ryanodine receptors were placed on a poly-L-lysine-coated coverslip and allowed to attach. Cells were then rinsed in physiological saline having the following composition (mM): NaCl 130; KCl 5.4; MgCl2 1.2; CaCl2 1.0; NaHCO3 4.2; NaH2P04 7.3; Glucose 10; Sucrose 63; MES 20; pH 6.3. Cells were then bathed in physiological saline containing the calcium sensitive fluoroprobe, Fura-2 AM (2 μM), and Pluronic F127 (0.002%) for 30 min. Cells were rinsed in standard physiological saline for at least 15 min prior to testing. […]
For studies involving the stable recombinant Spodoptera frugiperda cell line, Sf9, (other cell lines could also be used such as Sf21, S2, etc) expressing an insect ryanodine receptor from Drosophila melanogaster, or Heliothis virescens (alternatively receptors from other species such as Myzus persicae, Peregrinus maidis, Aphis gossypii, etc) were grown in T75 (or other appropriate sized) flasks in supplemented Grace's insect medium. […] After a 30 minute equilibration period the cell plate was tested using a Molecular Devices' FlexStation™ system with dual wavelength excitation (340 and 380 nm) and fluorescence emission measured at 510 nm. […]

[2] = tested on: control cells without DNA / wild-type Sf9 cells; experiment: Calcium response in control Sf9 cells (without DNA, lipid only, non-transfected, wild type); type: cell-based, Spodoptera frugiperda; conditions: Compound 5 3 μM
Text: (§1) Several drops of a suspension of recombinant Spodoptera frugiperda cell line, Sf9, transiently expressing insect ryanodine receptors were placed on a poly-L-lysine-coated coverslip and allowed to attach. Cells were then rinsed in physiological saline having the following composition (mM): NaCl 130; KCl 5.4; MgCl2 1.2; CaCl2 1.0; NaHCO3 4.2; NaH2P04 7.3; Glucose 10; Sucrose 63; MES 20; pH 6.3. Cells were then bathed in physiological saline containing the calcium sensitive fluoroprobe, Fura-2 AM (2 μM), and Pluronic F127 (0.002%) for 30 min. Cells were rinsed in standard physiological saline for at least 15 min prior to testing. Testing was conducted in standard physiological saline, as the cell lines are devoid of functional voltage-gated calcium channels.
Imaging studies were conducted using a Nikon Diaphot microscope with a 40× oil immersion objective (NA 1.3) Image acquisition and processing was performed using the MetaFluor™ imaging system from Universal Imaging Corporation (West Chester, Pa.) Calcium calibration was carried out using the Grynkiewicz equation with a dissociation constant (Kd) of 145 nM for Fura-2 (Grynkiewicz et al., 1985). Cell-attached coverslips were placed in a sealed chamber with physiological saline continuously perfused across the cells using a peristaltic pump. Test compounds solubilized in physiological saline were applied by switching the perfusate source.
(§2) For studies involving the stable recombinant Spodoptera frugiperda cell line, Sf9, (other cell lines could also be used such as Sf21, S2, etc) expressing an insect ryanodine receptor from Drosophila melanogaster, or Heliothis virescens (alternatively receptors from other species such as Myzus persicae, Peregrinus maidis, Aphis gossypii, etc) were grown in T75 (or other appropriate sized) flasks in supplemented Grace's insect medium. Cells were maintained in an incubator at 22° C. until testing. Cells were suspension-loaded with the calcium sensitive fluoroprobe, Fura-2 AM (1-2 μM) and Pluronic F127 (0.002%) in culture medium for 30 minutes under agitation. Cells were then centrifuged and the pellet resuspended in physiological saline having the following composition (mM): NaCl 130; KCl 5.4; MgCl2 1.2; CaCl2 1.0; NaHCO3 4.2; NaH2P04 7.3; Glucose 10; Sucrose 63; MES 20; pH 6.3 at approximately 150,000-200,000 cells per well (96-well plate). After a 30 minute equilibration period the cell plate was tested using a Molecular Devices' FlexStation™ system with dual wavelength excitation (340 and 380 nm) and fluorescence emission measured at 510 nm. Test and control samples were added using integrated fluidics and the intracellular calcium monitored over a 2 minute period.

[3] = molecular target: native cockroach ryanodine receptors (roach femoral muscle membranes) (Periplaneta americana, UniProt A0ABQ8T696); experiment: Radioligand displacement ([3H]-GN analog Cpd 1) on roach femoral muscle membranes; type: binding; conditions: displacement of [3H]-Cpd 1, roach muscle membranes, 60 min at 32° C.; read-out: Displacement IC50 (nM) P. americana
Method: Binding to Roach Femoral Muscle Membranes:
Assays were carried out in triplicate.

[4] = molecular target: T1, recombinant Drosophila melanogaster ryanodine receptors (expressed in Sf9 cells) (Drosophila melanogaster, UniProt Q24498); type: cell-based; conditions: receptor expressed in Sf9 cells
T1 construct: expressed in transfected cells
Method: The Spodoptera frugiperda cell line Sf9 used for transfection studies, was maintained in Sf-900 II SFM medium (Invitrogen Life Technologies™, Carlsbad, Calif.) in T-75 flasks incubated at 27° C. It is understood that those skilled in the art might choose alternative cell types such as the Spodoptera frugiperda cell line Sf21 or the Drosophila cell line S2. For the purpose of general handling and propagation, cells were suspended through scraping or agitation and a volume of cell suspension was added to each well of a poly-L-lysine coated 96-well, glass-bottom plate so as to provide 70-80% confluence. Cells were maintained in an incubator at 27° C. until testing.
SF900-II media was used to bring the final volume in the dish to 2 ml and the cells were incubated at 27 degrees C. for 21 h. Following the incubation the media was aspirated from the dish and replaced with 1 ml of SF900-II media pre-warmed to 27 degrees C.
The transient transfection was carried out following an InsectSelect BSD System manual (Invitrogen Life Technologies™, Carlsbad, Calif.). […] The transfection was accomplished by adding the transfection solution drop-wise to the dish and incubating 4 h at room temperature with gentle rocking. […]
as §1
Cell-attached coverslips were placed in a sealed chamber with physiological saline continuously perfused across the cells using a peristaltic pump. Test compounds solubilized in physiological saline were applied by switching the perfusate source.
as §2

Cc1cccc(C(=O)NC(C)C)c1NC(=O)c1cc(C(F)(F)F)nn1-c1ncccc1Cl [Cpd 5, 1-(3-Chloro-2-pyridinyl)-N-[2-methyl-6-[[(1-methylethyl)amino]carbonyl]phenyl]-3-(trifluoromethyl)-1H-pyrazole-5-carboxamide]
cytosolic [Ca2+] response [1]: increase in cytosolic [Ca^2+] | calcium response in control cells without DNA [2]: No significant calcium responses | IC50 [3]: < 300 nM | Calcium Release Threshold (nM) D. melanogaster [4]: <300 nM
